Results taken from ChEMBL document CHEMBL5137117, “Cytotoxic Cyclotides from Anchietea pyrifolia, a South American Plant Species” (J Nat Prod, 2022).
Bridge positions count the residues as written; N and C are the ends. Peptide text beside a SMILES is read from it.

Tests used:
HCT-116 = assay: Cytotoxicity against human HCT-116 cells assessed as inhibition of cell growth measured after 72 hrs by MTT assay; type: functional, cell-based; details: HCT-116, 72 h
[1] = Cytotoxicity against human HCT116-p53-null cells assessed as inhibition of cell growth measured after 72 hrs by MTT assay; type: functional, cell-based
MCF7 = assay: Cytotoxicity against human MCF7 cells assessed as inhibition of cell growth measured after 72 hrs by MTT assay; type: functional, cell-based; details: MCF7, 72 h
[2] = Hemolytic activity in human red blood cells incubated for 2 hrs by microplate reader assay; type: toxicity, cell-based, Erythrocyte; details: red blood cells (erythrocytes), read-out: HD50
[3] = Hemolytic activity in human red blood cells at 78 uM incubated for 2 hrs by microplate reader assay relative to control; type: toxicity, cell-based, Erythrocyte; details: red blood cells (erythrocytes), read-out: Activity

Structure (SMILES) | IC50 (HCT-116) | IC50 [1] | IC50 (MCF7) | HC50 at 2 h [2] | hemolysis at 2 h, 78 µM [3]
CC[C@H](C)[C@@H]1NC(=O)[C@H](C)NC(=O)[C@H](C)NC(=O)[C@H](CO)NC(=O)[C@H]([C@@H](C)CC)NC(=O)[C@@H]2CSSC[C@@H]3NC(=O)[C@H](C(C)C)NC(=O)[C@H](CCCCN)NC(=O)[C@H](CC(N)=O)NC(=O)[C@H](CCCCN)NC(=O)[C@@H]4CSSC[C@H](NC(=O)[C@H](CO)NC(=O)[C@H](CCC(=O)O)NC(=O)CNC(=O)[C@H](CSSC[C@H](NC(=O)CNC1=O)C(=O)N[C@@H](CO)C(=O)N4)NC(=O)[C@@H]1CCCN1C(=O)[C@H]([C@@H](C)CC)NC(=O)CNC(=O)[C@H](CC(N)=O)NC(=O)[C@H](CCCNC(=N)N)NC(=O)[C@H](Cc1ccc(O)cc1)NC3=O)C(=O)N[C@@H](C(C)C)C(=O)N[C@@H](Cc1c[nH]c3ccccc13)C(=O)N[C@@H]([C@@H](C)CC)C(=O)N1CCC[C@H]1C(=O)N2 (cyclo(AAIGCSCKNKVCYRNGIPCGESCVWIPCIS); disulfide 5-19, 7-23, 12-28) | 800 nM | 1200 nM | 5600 nM | > 156 µM | 23%
CC[C@H](C)[C@@H]1NC(=O)[C@H](CO)NC(=O)[C@H](CC(N)=O)NC(=O)[C@H](CCCCN)NC(=O)[C@H](Cc2ccc(O)cc2)NC(=O)[C@@H]2CSSC[C@@H]3NC(=O)[C@@H]4CCCN4C(=O)[C@H]([C@@H](C)CC)NC(=O)[C@H](Cc4c[nH]c5ccccc45)NC(=O)[C@H](C(C)C)NC(=O)[C@@H]4CSSC[C@H](NC(=O)[C@H](CO)NC(=O)[C@H](CSSC[C@H](NC(=O)[C@@H]5CCCN5C1=O)C(=O)NCC(=O)N[C@@H](CCC(=O)O)C(=O)N[C@@H](CO)C(=O)N4)NC(=O)CNC(=O)[C@H](C)NC(=O)[C@H](CC(C)C)NC(=O)[C@H](C)NC(=O)[C@H]([C@@H](C)O)NC(=O)[C@H](C(C)C)NC(=O)[C@H]([C@@H](C)O)NC3=O)C(=O)N[C@@H](CCCCN)C(=O)N[C@@H](CC(N)=O)C(=O)N[C@@H](CCCCN)C(=O)N[C@@H](C(C)C)C(=O)N2 (cyclo(AGCSCKNKVCYKNSIPCGESCVWIPCTVTAL); disulfide 3-17, 5-21, 10-26) | 1400 nM | 2300 nM | 7300 nM | > 78 µM | < 50%
CC[C@H](C)[C@@H]1NC(=O)[C@H](C)NC(=O)[C@H](CO)NC(=O)[C@H](CO)NC(=O)[C@H]([C@@H](C)CC)NC(=O)[C@@H]2CSSC[C@@H]3NC(=O)[C@H](C(C)C)NC(=O)[C@H](CCCCN)NC(=O)[C@H](CC(N)=O)NC(=O)[C@H](CCCCN)NC(=O)[C@@H]4CSSC[C@H](NC(=O)[C@H](CO)NC(=O)[C@H](CCC(=O)O)NC(=O)CNC(=O)[C@H](CSSC[C@H](NC(=O)CNC1=O)C(=O)N[C@@H](CO)C(=O)N4)NC(=O)[C@@H]1CCCN1C(=O)[C@H]([C@@H](C)CC)NC(=O)CNC(=O)[C@H](CC(N)=O)NC(=O)[C@H](CCCNC(=N)N)NC(=O)[C@H](Cc1ccc(O)cc1)NC3=O)C(=O)N[C@@H](C(C)C)C(=O)N[C@@H](Cc1c[nH]c3ccccc13)C(=O)N[C@@H]([C@@H](C)CC)C(=O)N1CCC[C@H]1C(=O)N2 (cyclo(AIGCSCKNKVCYRNGIPCGESCVWIPCISS); disulfide 4-18, 6-22, 11-27) | 1400 nM | 2100 nM | 7100 nM | > 156 µM | –
CC[C@H](C)[C@@H]1NC(=O)[C@H](C)NC(=O)[C@H]([C@@H](C)O)NC(=O)[C@H](C(C)C)NC(=O)[C@H]([C@@H](C)O)NC(=O)[C@@H]2CSSC[C@@H]3NC(=O)[C@H](C(C)C)NC(=O)[C@H](CCCCN)NC(=O)[C@H](CO)NC(=O)[C@H](CCCCN)NC(=O)[C@@H]4CSSC[C@H](NC(=O)[C@H](CO)NC(=O)[C@H](CCC(=O)O)NC(=O)CNC(=O)[C@H](CSSC[C@H](NC(=O)CNC(=O)[C@H]([C@@H](C)CC)NC1=O)C(=O)N[C@@H](CO)C(=O)N4)NC(=O)[C@@H]1CCCN1C(=O)[C@H](CC(C)C)NC(=O)CNC(=O)[C@H](CC(N)=O)NC(=O)[C@H](CCCCN)NC(=O)[C@H](Cc1ccc(O)cc1)NC3=O)C(=O)N[C@@H](C(C)C)C(=O)N[C@@H](Cc1ccccc1)C(=O)N[C@@H](CC(C)C)C(=O)N1CCC[C@H]1C(=O)N2 (cyclo(AIIGCSCKSKVCYKNGLPCGESCVFLPCTVT); disulfide 5-19, 7-23, 12-28) | 1100 nM | 1300 nM | 5800 nM | – | –
CC[C@H](C)[C@@H]1NC(=O)CNC(=O)[C@H](CO)NC(=O)[C@H]([C@@H](C)CC)NC(=O)[C@@H]2CSSC[C@@H]3NC(=O)[C@H](C(C)C)NC(=O)[C@H](CCCCN)NC(=O)[C@H](CC(N)=O)NC(=O)[C@H](CO)NC(=O)[C@@H]4CSSC[C@H](NC(=O)[C@H](CO)NC(=O)[C@H](CCC(=O)O)NC(=O)CNC(=O)[C@H](CSSC[C@H](NC(=O)CNC(=O)[C@H](CC(C)C)NC1=O)C(=O)N[C@@H](CO)C(=O)N4)NC(=O)[C@@H]1CCCN1C(=O)[C@H](C(C)C)NC(=O)[C@H](CO)NC(=O)CNC(=O)[C@H](CC(N)=O)NC(=O)[C@H](Cc1ccc(O)cc1)NC(=O)[C@H](Cc1ccc(O)cc1)NC3=O)C(=O)N[C@@H](C(C)C)C(=O)N[C@@H](Cc1c[nH]c3ccccc13)C(=O)N[C@@H]([C@@H](C)CC)C(=O)N1CCC[C@H]1C(=O)N2 (cyclo(CGESCVWIPCISGILGCSCSNKVCYYNGSVP); disulfide 1-17, 5-19, 10-24) | 2300 nM | 2600 nM | 5100 nM | 22 µM | 87%
COc1cccc2c1C(=O)c1c(O)c3c(c(O)c1C2=O)C[C@@](O)(C(=O)CO)C[C@@H]3O[C@H]1C[C@H](N)[C@H](O)[C@H](C)O1 [DOXORUBICIN] | – | – | 500 nM | – | –
